For series [1] the following is noted: about 1 atmosphere and about 60° F.; cited from earlier work.
Series [2] has as its system S. pneumoniae MVK. In words: Inhibition of MVK by diphosphomevalonate, two enzyme system (MVK plus PMK). It is filed as biochemical, Streptococcus pneumoniae. The note with it: 1 μM MVK, 1 μM PMK, diphosphomevalonate formed in situ. The procedure:
(§1) This experiment investigates the inhibitory effect of diphosphomevalonate and […] (IP) on MVK activity using MVK enzymes from S. pneumoniae, yeast, and M. mazei, respectively. […] All reactions were performed in 96-well plates and were monitored by absorbance at 386 nm on a Molecular Devices Spectramax 190 UV-Vis 96-well spectrophotometer. […] All chemical reagents were purchased from Sigma unless otherwise specified. Yeast and M. mazei MVK were obtained as described above and S. pneumoniae MVK and yeast phosphomevalonate kinase (PMK) were obtained as previously described (Andreassi et al., Biochemistry, 43:16461-66, 2004) from pDW02 in pET200D MVK (FIG. 142).

Series [3] deals with M. mazei MVK. Nature of the series: Inhibition of MVK by diphosphomevalonate and IP, two enzyme system. Conditions: 1 μM MVK; for Inhibition of M. mazei MVK by isopentenyl monophosphate: 100 μM. The format is biochemical, Methanosarcina mazei. An excerpt: This experiment investigates the inhibitory effect of diphosphomevalonate and […] (IP) on MVK activity using MVK enzymes from S. pneumoniae, yeast, and M. mazei, respectively. […] All chemical reagents were purchased from Sigma unless otherwise specified.

For series [4], the target named is T1, yeast MVK (Saccharomyces cerevisiae, UniProt P07277).
T1 construct: 10xHis tag with factor Xa site (pET-16b leader); made in house; host or cells: E. coli BL21(DE3) pLysS
T1 sequence (P07277 1-443): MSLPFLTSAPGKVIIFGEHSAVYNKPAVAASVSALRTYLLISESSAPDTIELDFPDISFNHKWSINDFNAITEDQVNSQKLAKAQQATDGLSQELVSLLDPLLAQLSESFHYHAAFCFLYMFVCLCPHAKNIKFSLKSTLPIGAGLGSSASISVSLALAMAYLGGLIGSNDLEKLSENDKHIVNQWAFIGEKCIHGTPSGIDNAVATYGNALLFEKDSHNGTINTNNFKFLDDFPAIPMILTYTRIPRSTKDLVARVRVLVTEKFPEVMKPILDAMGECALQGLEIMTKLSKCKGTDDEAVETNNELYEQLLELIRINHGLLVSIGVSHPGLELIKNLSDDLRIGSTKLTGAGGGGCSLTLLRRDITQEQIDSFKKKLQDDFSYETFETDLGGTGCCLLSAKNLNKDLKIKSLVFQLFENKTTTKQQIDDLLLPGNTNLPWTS
In words: Inhibition of MVK by diphosphomevalonate, two enzyme system (MVK plus PMK). The format is biochemical. The note with it: 1 μM MVK, 1 μM PMK, diphosphomevalonate formed in situ. The procedure:
as §1

The target in series [5] is T2, MVK from the archaeon Methanococcus jannaschii (Methanocaldococcus jannaschii, UniProt Q58487).
T2 sequence (Q58487 1-312): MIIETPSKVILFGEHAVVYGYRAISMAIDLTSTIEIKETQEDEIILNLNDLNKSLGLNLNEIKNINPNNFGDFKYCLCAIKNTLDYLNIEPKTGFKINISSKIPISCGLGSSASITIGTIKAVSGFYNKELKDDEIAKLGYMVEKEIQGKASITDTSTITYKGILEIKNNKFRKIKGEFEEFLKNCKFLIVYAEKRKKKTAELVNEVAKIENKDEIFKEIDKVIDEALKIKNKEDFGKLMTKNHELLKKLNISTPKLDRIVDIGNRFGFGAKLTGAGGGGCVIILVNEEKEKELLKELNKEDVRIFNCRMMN
Conditions: Huang et al. 1999; cited from earlier work.

The target in series [6] is human MVK polypeptide (Homo sapiens, UniProt Q03426). Conditions: reported; cited from earlier work.
In series [7] the target is T3, yeast mevalonate kinase (Saccharomyces cerevisiae, UniProt P07277).
T3 construct: 10xHis tag with factor Xa site (pET-16b leader); made in house; host or cells: E. coli BL21(DE3) pLysS
T3 sequence (P07277 1-443): T1 sequence (P07277 1-443)
It is filed as biochemical. The note with it: for KMapp of yeast mevalonate kinase: other substrate saturating at 5 mM, 30° C.

Series [8] is described as follows: Flammability modeling (CAFT) and testing of isoprene. The format is physicochemical. From the text:
Thus, computer modeling and experimental testing were used to determine the flammability limits of isoprene (such as isoprene in the presence of O2, N2, CO2, or any combination of two or more of the foregoing gases) in order to ensure process safety. The flammability envelope is characterized by the lower flammability limit (LFL), the upper flammability limit (UFL), the limiting oxygen concentration (LOC), and the limiting temperature. For a system to be flammable, a minimum amount of fuel (such as isoprene) must be in the presence of a minimum amount of oxidant, typically oxygen. The LFL is the minimum amount of isoprene that must be present to sustain burning, while the UFL is the maximum amount of isoprene that can be present. Above this limit, the mixture is fuel rich and the fraction of oxygen is too low to have a flammable mixture. The LOC indicates the minimum fraction of oxygen that must also be present to have a flammable mixture. […]
Calculated adiabatic flame temperatures (CAFT) along with a selected limit flame temperature for combustion propagation were used to determine the flammability envelope for isoprene. […]
The igniter was comprised of a 1.5 ohm nicrome coil and an AC voltage source on a timer circuit. Using an oscilloscope, it was determined that 34.4 VAC were delivered to the igniter for 3.2 seconds. […]

Entries after “also recorded” stand apart in the source; their conditions may differ.

human MVK polypeptide, sequence (Q03426 whole entry): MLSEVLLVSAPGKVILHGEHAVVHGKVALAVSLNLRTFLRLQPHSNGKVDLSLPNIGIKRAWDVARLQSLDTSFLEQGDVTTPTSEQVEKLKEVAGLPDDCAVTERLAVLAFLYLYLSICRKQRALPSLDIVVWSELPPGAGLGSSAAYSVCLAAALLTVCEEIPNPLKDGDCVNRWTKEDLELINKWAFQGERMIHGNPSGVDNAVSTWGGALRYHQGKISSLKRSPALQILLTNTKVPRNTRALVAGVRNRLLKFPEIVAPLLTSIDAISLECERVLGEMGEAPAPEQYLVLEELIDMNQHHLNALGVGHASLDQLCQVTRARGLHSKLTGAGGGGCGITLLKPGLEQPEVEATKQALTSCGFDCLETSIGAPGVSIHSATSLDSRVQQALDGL

Take `CCO` [ethanol]: in series [1], the LFL result is reported as “about 3.3 vol %” and the LOC entry is “about 8.7 vol %”.
On to `C[C@@](O)(CCOP(=O)(O)OP(=O)(O)O)CC(=O)O` [diphosphomevalonate], for which the “Inhibition of S. pneumoniae MVK by diphosphomevalonate” value in series [2] is on record as “inhibited”. For the same molecule, the “Inhibition of M. mazei MVK by diphosphomevalonate” value in series [3] (PMK, diphosphomevalonate formed in situ) was “proceed to completion; also recorded: Neither yeast MVK nor M. mazei MVK was inhibited”. In addition, in series [4], the “Inhibition of yeast MVK by diphosphomevalonate” value is on record as “not inhibited; also recorded: Neither yeast MVK nor M. mazei MVK was inhibited”.
In the case of `C=C(C)CCOP(=O)(O)OP(=O)(O)O` [IPP, isopentenyl diphosphate], in series [3], the “Inhibition of M. mazei MVK by isopentenyl monophosphate” value is on record as “not inhibited”.
As for `CC(C)=CCC/C(C)=C/COP(=O)(O)OP(=O)(O)O` [GPP, geranyl diphosphate], the “Feedback inhibition of M. jannaschii MVK” value in series [5] is listed as “feedback inhibited”. Besides, the “Ki for human MVK polypeptide” value in series [6] is recorded as “nanomolar range”.
On to `C=C(C)CCOP(=O)(O)O` [IP, isopentenyl monophosphate], for which the “Inhibition of M. mazei MVK by isopentenyl monophosphate” value in series [3] is on record as “not inhibited”.
As for `CC(O)(CCO)CC(=O)O` (stereo not shown) [mevalonate], the “KMapp of yeast mevalonate kinase” value in series [7] amounted to 131 ± 8 µM.
With `CC(C)=CCC/C(C)=C/CC/C(C)=C/CC/C(C)=C/COP(=O)(O)OP(=O)(O)O` [GGPP, geranylgeranyl diphosphate], in series [6], the “Ki for human MVK polypeptide” value is listed as “nanomolar range”.
As to `C=CC(=C)C` [isoprene, 2-methyl-1,3-butadiene], the “limiting oxygen concentration (LOC)” value in series [8] (isoprene, O2, N2, and CO2 mixture at 40° C. and 1 atmosphere) is 9.5 vol %. Moreover, the limiting temperature entry in series [8] (lowest temperature at which combustion can propagate) was “about −54 °C”.
For the molecule `CC(C)=CCC/C(C)=C/CC/C(C)=C/CO[P@@](=O)(O)OP(=O)(O)O` (stereo in doubt) [FPP, farnesyl diphosphate], the “Ki for human MVK polypeptide” value in series [6] is reported as “nanomolar range”.
With `Nc1ncnc2c1ncn2[C@@H]1O[C@H](COP(=O)(O)OP(=O)(O)OP(=O)(O)O)[C@@H](O)[C@H]1O` [ATP, adenosine triphosphate], the “KMapp of yeast mevalonate kinase” value in series [7] was determined as 714 ± 49 µM.

B1: yeast mevalonate kinase: mevalonate kinase from Saccharomyces cerevisiae, expressed in E. coli and purified to >95% (protein, UniProt P07277 1-443, looked up)
Mevalonate kinase: T1 sequence (P07277 1-443)
Regarding B1, the “turnover number (kcat)” value in series [7] (yeast mevalonate kinase) came to 38 ± 5 s⁻¹.

The values above are taken from US9464301B2, “Increased isoprene production using the archaeal lower mevalonate pathway” (Danisco US Inc., priority 2008, dated 2016).
